Values quoted from earlier work in paper PMC9729727, “The effect of food on the pharmacokinetics of WXFL10203614, a potential selective JAK1 inhibitor, in healthy Chinese subjects” (Frontiers in Pharmacology, 2022).
Where two headings read alike, the source gives them in different places.

Conditions: for Effect of food on AUC / Effect of food on Cmax: ref Shi et al., 2011, Mohamed et al., Anderson et al.; for Effect of the fed state on Cmax: ref Lamba et al., 2016, Shibata et al., 2021
[1] = 3 mg immediate-release capsules, high-fat meal vs fasted, ref Mohamed et al., 2017

| SMILES | Effect of food on AUC (2017, 2019) | Effect of food on Cmax (2017, 2019) | Effect of the fed state on Cmax | further results |
| --- | --- | --- | --- | --- |
| N#CC[C@H](C1CCCC1)n1cc(-c2ncnc3[nH]ccc23)cn1 [INCB018424] | little effect | partly reduced | – | – |
| O=C(Nc1nc2cccc(-c3ccc(CN4CCS(=O)(=O)CC4)cc3)n2n1)C1CC1 [filgotinib] | little effect | partly reduced | – | Effect of meals on systemic exposure (high- and low-fat meals, ref Anderson et al., 2019): little effect; Decrease of Cmax by meal (high-fat meal, ref Anderson et al., 2019): 20%; Decrease of Cmax by meal (low-fat meal, ref Anderson et al., 2019): 11% |

Now from value to compound, other results behind:

| Effect of food on AUC (2017, 2019) | Effect of food on Cmax (2017, 2019) | Effect of the fed state on Cmax | SMILES | further results |
| --- | --- | --- | --- | --- |
| – | – | elevated | NC(=O)c1cnc2[nH]ccc2c1N[C@@H]1[C@@H]2CC3C[C@H]1C[C@@](O)(C3)C2 [peficitinib] | – |
| – | – | elevated | C[C@@H]1CCN(C(=O)CC#N)C[C@@H]1N(C)c1ncnc2[nH]ccc12 [tofacitinib] | – |
| little effect | partly reduced | – | CC[C@@H]1CN(C(=O)NCC(F)(F)F)C[C@@H]1c1cnc2cnc3[nH]ccc3n12 [upadacitinib] | Decrease of Cmax after a high-fat meal [1]: 23%; Effect of a high-fat meal on AUC [1]: not impacted |
